Assay results taken from US6855348B2, “Insecticidal composition derived from plants” (priority 2000, dated 2005).
Like-named read-outs stand apart in the source and are kept apart here.

How the values were obtained:
[1] = test system: Dermatophagoides farinae
Description: (§1) American house dust mite (Dermatophagoides farinae) and European house dust mite (Dermatophagoide pteronyssinus) were maintained at 75±5% RH (relative humidity) at 25±1° C., and were provided a feed mixture of fish meal and multi-vitamins in a ratio of 1 to 1 on a 12.5×10.5×5 cm container.
(§2) The starting concentration is important for the primary screening of bioactive compounds from plant extracts and oils. […] 1 mg of the methanol extracts or oils were suspended with 40 μl of methanol and were transferred to a colorless microtube (2 ml). The microtube was vertically shaken several times to disperse the contents to the wall and cap of the microtube and it was placed in a freeze dryer for 1 hour in order to volatilize the solvent. Twenty-five mites were placed on the prepared microtube, and all treatment groups were transferred to an incubator kept at […]. Active mites only were selected with a fine brush under a microscope. Mortalities were determined with a microscope at 24 hours and 48 hours after treatment. […] All tests were replicated four or more times. The percentage mortality was determined and transformed to arcsine square-root values for analysis of variance (ANOVA). Treatment means were compared and separated by Scheffe's test at the P=0.05 (SAS Institute, 1996). Means (±standard error) of untransformed data are reported. Controls received 40 μl of methanol.

[2] = test system: Dermatophagoides pteronyssinus
Description: as §1, §2

[3] = test system: house dust mites; format: in vivo; conditions: for acaricidal activity / mortality against two species of house dust mites: 1 mg/tube, 48 hours after treatment; for acaricidal activity: at 0.4 mg and less
Description: All tests were replicated four or more times. […] Means (±standard error) of untransformed data are reported. Controls received 40 μl of methanol.

[4] = test system: mites inhabiting carpets and chairs; conditions: homes, cited from earlier work
[5] = synergic effect test, 0.25 mg/tube of each compound, 24 hr
[6] = 0.5 mg/tube, 48 hr, listed as Allyl isothiocyanate
[7] = 0.5 mg/tube, 48 hr, listed as Butyl isothiocyanate

Row | Compound | Mortality (Means ± standard error, %) ([1]; 0.125 mg/tube, 24 hr) | Mortality (Means ± standard error, %) ([1]; 0.125 mg/tube, 48 hr) | Mortality (Means ± standard error, %) ([1]; 0.2 mg/tube, 24 hr) | Mortality (Means ± standard error, %) ([1]; 0.2 mg/tube, 48 hr) | Mortality (Means ± standard error, %) ([1]; 0.25 mg/tube, 24 hr) | Mortality (Means ± standard error, %) ([1]; 0.25 mg/tube, 48 hr) | Mortality (Means ± standard error, %) ([1]; 0.3 mg/tube, 24 hr) | Mortality (Means ± standard error, %) ([1]; 0.3 mg/tube, 48 hr) | Mortality (Means ± standard error, %) ([1]; 0.4 mg/tube, 24 hr) [b %] | Mortality (Means ± standard error, %) ([1]; 0.4 mg/tube, 48 hr) | Mortality (Means ± standard error, %) ([1]; 0.5 mg/tube, 24 hr) | Mortality (Means ± standard error, %) ([1]; 0.5 mg/tube, 48 hr) | Mortality (Means ± standard error, %) ([1]; 1 mg/tube, 24 hr) | Mortality (Means ± standard error, %) ([1]; 1 mg/tube, 48 hr) [a %] | Mortality (Means ± standard error, %) ([2]; 0.125 mg/tube, 24 hr) | Mortality (Means ± standard error, %) ([2]; 0.125 mg/tube, 48 hr) | Mortality (Means ± standard error, %) ([2]; 0.2 mg/tube, 24 hr) | Mortality (Means ± standard error, %) ([2]; 0.2 mg/tube, 48 hr) | Mortality (Means ± standard error, %) ([2]; 0.25 mg/tube, 24 hr) | Mortality (Means ± standard error, %) ([2]; 0.25 mg/tube, 48 hr) | also measured
1 | CCN(CC)C(=O)c1cccc(C)c1 [DEET, reference compound] |  |  |  |  |  |  |  |  |  |  |  |  |  |  |  |  |  |  |  |  | Mortality (Means ± standard error, %) [1, 5]: 96.8%; Mortality (Means ± standard error, %) [2, 5]: 16.8%
2 | C=CCN=C=S [allyl isothiocyanate] | 1.0 ± 1.0 e % | 0 e % | 6.0 ± 1.2 d % | 9.0% | 7.0 ± 3.0 d % | 8.0% | 22.0 ± 2.6 c % | 27.0% | 44.0 ± 2.8 | 46.0% | 90.0 ± 2.6 a % | 97.0% | 100 a % | 100 | 6.0 ± 3.5 d % | 9.0 ± 2.5 c % | 7.0 ± 1.0 cd % | 9.0 ± 1.0 c % | 9.0 ± 1.9 cd % | 10.0 ± 2.6 bc % | Mortality (Means ± standard error, %) [1, 6]: 94%; Mortality (Means ± standard error, %) ([2]; 0.3 mg/tube, 24 hr): 25.0 ± 2.5 bc %; Mortality (Means ± standard error, %) ([2]; 0.3 mg/tube, 48 hr): 32.0 ± 2.8 b %; Mortality (Means ± standard error, %) ([2]; 0.4 mg/tube, 24 hr): 33.0 ± 2.5 b %; Mortality (Means ± standard error, %) ([2]; 0.4 mg/tube, 48 hr): 42.0 ± 4.2 b %; Mortality (Means ± standard error, %) ([2]; 0.5 mg/tube, 24 hr): 92.0 ± 2.6 a %; Mortality (Means ± standard error, %) ([2]; 0.5 mg/tube, 48 hr): 94.0 ± 2.6 a %; Mortality (Means ± standard error, %) [2, 6]: 96%; Mortality (Means ± standard error, %) ([2]; 1 mg/tube, 24 hr): 100 a %; Mortality (Means ± standard error, %) ([2]; 1 mg/tube, 48 hr): 100 a %; acaricidal activity / mortality against two species of house dust mites [3]: 100%; acaricidal activity [3]: no significant acaricidal activity
3 | CCCCN=C=S [butyl isothiocyanate] | 1.0 ± 1.0 d % | 2.0% | 1.0 ± 1.0 e % | 3.0% | 20.0 ± 1.6 c % | 27.0% | 26.0 ± 2.0 c % | 34.0% | 44.0 ± 2.8 | 48.0% | 84.0 ± 5.2 a % | 94.0% | 99.0 ± 1.0 a % | 100 | 1.0 ± 1.0 d % | 2.0 ± 1.2 d % | 7.0 ± 1.0 cd % | 7.0 ± 1.0 cd % | 21.0 ± 2.5 cd % | 30.0 ± 8.7 bc % | Mortality (Means ± standard error, %) [1, 7]: 97%; Mortality (Means ± standard error, %) ([2]; 0.3 mg/tube, 24 hr): 32.0 ± 1.6 bc %; Mortality (Means ± standard error, %) ([2]; 0.3 mg/tube, 48 hr): 39.0 ± 2.5 bc %; Mortality (Means ± standard error, %) ([2]; 0.4 mg/tube, 24 hr): 39.0 ± 2.5 b %; Mortality (Means ± standard error, %) ([2]; 0.4 mg/tube, 48 hr): 45.0 ± 2.5 b %; Mortality (Means ± standard error, %) ([2]; 0.5 mg/tube, 24 hr): 92.0 ± 2.6 a %; Mortality (Means ± standard error, %) ([2]; 0.5 mg/tube, 48 hr): 96.0 ± 2.3 a %; Mortality (Means ± standard error, %) [2, 7]: 94%; Mortality (Means ± standard error, %) ([2]; 1 mg/tube, 24 hr): 99.0 a^c %; Mortality (Means ± standard error, %) ([2]; 1 mg/tube, 48 hr): 100 a %; acaricidal activity / mortality against two species of house dust mites [3]: 100%; acaricidal activity [3]: no significant acaricidal activity
4 | OC/C=C/c1ccccc1 [cinnamyl alcohol] | 1.0 ± 1.0d % | 2.0 ± 1.2c % | 7.0 ± 1.0c % | 7.0 ± 1.0c % | 10.0 ± 3.8c % | 10.0 ± 4.1c % | 39.0 ± 2.6b % | 45.0 ± 1.9b % | 58.0 ± 2.6 | 65.0 ± 1.9ab % | 90.0% | 97.0 ± 1.9a % | 99.0 ± 1.0a % | 100 | 1.0 ± 1.0e % | 3.0 ± 1.9d % | 6.0 ± 1.2d % | 10.0 ± 1.2c % | 15.0 ± 1.9d % | 14.0 ± 2.6c % | Mortality (Means ± standard error, %) ([2]; 0.3 mg/tube, 24 hr): 35.0 ± 2.5c %; Mortality (Means ± standard error, %) ([2]; 0.3 mg/tube, 48 hr): 40.0 ± 3.7b %; Mortality (Means ± standard error, %) ([2]; 0.4 mg/tube, 24 hr): 56.0 ± 2.8b %; Mortality (Means ± standard error, %) ([2]; 0.4 mg/tube, 48 hr): 62.0 ± 2.6b %; Mortality (Means ± standard error, %) ([2]; 0.5 mg/tube, 24 hr): 90.0%; Mortality (Means ± standard error, %) ([2]; 0.5 mg/tube, 48 hr): 97.0 ± 1.9a %; Mortality (Means ± standard error, %) ([2]; 1 mg/tube, 24 hr): 99.0 ± 1.0a %; Mortality (Means ± standard error, %) ([2]; 1 mg/tube, 48 hr): 100a %
5 | CCCCOC(=O)c1ccccc1C(=O)OCCCC [dibutyl phtalate, reference compound] |  |  |  |  |  |  |  |  |  |  |  |  |  |  |  |  |  |  |  |  | Mortality (Means ± standard error, %) [1, 5]: 92.0%; Mortality (Means ± standard error, %) [2, 5]: 95.2%
6 | CCN(CC)c1nc(C)cc(OP(=S)(OC)OC)n1 [pirimiphos-methyl] |  |  |  |  |  |  |  |  |  |  |  |  |  |  |  |  |  |  |  |  | control of mites inhabiting carpets ([4]; carpets): 60%; control of mites inhabiting chairs ([4]; chairs): 50%
7 | O=C/C=C/c1ccccc1 [trans-cinnamaldehyde] | 18.0 ± 2.6d % | 23.0 ± 3.4c % | 19.0 ± 2.5cd % | 29.0 ± 1.9bc % | 21.0 ± 2.5cd % | 30.0 ± 8.7bc % | 32.0 ± 1.6bc % | 39.0 ± 2.5bc % | 41.0 ± 2.5 | 45.0 ± 2.5b % | 94.0% | 96.0 ± 2.3a % | 99.0 a^c % | 100 | 6.0 ± 3.5d % | 9.0 ± 2.5c % | 7.0 ± 1.0cd % | 9.0 ± 1.0c % | 9.0 ± 1.9cd % | 10.0 ± 2.6bc % | Mortality (Means ± standard error, %) ([2]; 0.3 mg/tube, 24 hr): 25.0 ± 2.5bc %; Mortality (Means ± standard error, %) ([2]; 0.3 mg/tube, 48 hr): 32.0 ± 2.8b %; Mortality (Means ± standard error, %) ([2]; 0.4 mg/tube, 24 hr): 33.0 ± 2.5b %; Mortality (Means ± standard error, %) ([2]; 0.4 mg/tube, 48 hr): 42.0 ± 4.2b %; Mortality (Means ± standard error, %) ([2]; 0.5 mg/tube, 24 hr): 84.0%; Mortality (Means ± standard error, %) ([2]; 0.5 mg/tube, 48 hr): 94.0 ± 2.6a %; Mortality (Means ± standard error, %) ([2]; 1 mg/tube, 24 hr): 100a %; Mortality (Means ± standard error, %) ([2]; 1 mg/tube, 48 hr): 100a %
